In this series the test system is HIV-1-NL4-3. Put plainly: p24 ELISA in H9 cells chronically infected with HIV-1-NL4-3 (antisense effect). The settings on record: H9 cells chronically infected with HIV-1-NL4-3, 5 days of incubation, p24 GAG ELISA. It counts as cell-based. As for the experimental part:
H9 cells, chronically infected with strain HIV-1-NL4-3 are washed twice with a PBS buffer in order to remove viruses already produced. The cells are incubated in a 96-well plate with 10^4 cells/well, 4 wells per sample, in 200 μl culturing medium with or without a compound according to the invention or Ritonavir, respectively, at a distinct concentration. After 5 days of incubation, 40 μl of the cell suspension are taken from each of the 4 wells and inactivated with 40 μl Nonidet P-40.
The amount of the antigen p24 GAG is determined by a quantitative ELISA assay (Sandwich-ELISA-Biotin-Strepavidin-HRP) according to the standard method of the Institute for Applied Microbiology in Vienna. As a standard, samples with a known amount of p24 are used to investigate the standard calibration curve.
In this context, in the case of stereochemically non-uniform oligomers of the sequence […]-NH2 (SEQ ID NO: 1), a reduction of the amount of p24 of 21% can be observed compared with the untreated sample.

Consider “TCGCTGCCAAAGAGT-NH2: stereochemically non-uniform oligomers of the sequence TCGCTGCCAAAGAGT-NH2 (SEQ ID NO: 1), as in EP 1157031 (3'-NH2, stereochemically non-uniform, chemistry not fully specified)”, for which the “reduction of the amount of p24 compared with the untreated sample” value turned out to be 21%.

The values are drawn from patent publication US9951093B2, “Chiral compounds substituted with phosphonic acid ester functions or phosphonic acid functions” (UGISense AG, priority 2006, dated 2018).
